The values that follow are results of earlier work, collected in patent publication US7204996B2, “Method of cancer treatment” (Board of Regents, The University of Texas System, priority 1999, dated 2007).

For data set [1], the system named is MDR overexpressing HL-60 cells. The conditions noted are these: for resistance index decrease on coincubation with verapamil: in the presence of verapamil.

`COc1cccc2c1C(=O)c1c(O)c3c(c(O)c1C2=O)C[C@@](O)(C(=O)CO)C[C@@H]3O[C@H]1C[C@H](N)[C@H](O)[C@H](C)O1` [doxorubicin, reference compound]: the “resistance index decrease on coincubation with verapamil” value (“resistance index decrease” below) in data set [1] is listed as 4.5 fold.
In the case of `C[C@@H]1O[C@@H](O[C@H]2C[C@](O)(C(=O)CO)Cc3c(O)c4c(c(O)c32)C(=O)c2ccccc2C4=O)[C@H](I)[C@H](O)[C@H]1O` [Annamycin, (7S,9S)-4-demethoxy-7-O-(2,6-dideoxy-2-iodo-alphamannopryanosyl) adriamycinone], the “solubility in water solutions” value is given as “completely insoluble”. Also, in data set [1] (MDR overexpressing HL-60 cells), the cytotoxicity result is given as “cytotoxic”. Also, in data set [1] (compared with idarubicin and doxorubicin), the resistance index entry was “lower than that of idarubicin and doxorubicin”. Besides, the “resistance index decrease” value in data set [1] is recorded as “did not change”.
Consider `CC(=O)[C@]1(O)Cc2c(O)c3c(c(O)c2[C@@H](O[C@H]2C[C@H](N)[C@H](O)[C@H](C)O2)C1)C(=O)c1ccccc1C3=O` [idarubicin, reference compound], for which the “resistance index decrease” value in data set [1] was 2 fold.
